Measured values: US6706663B2, “Herbicidal 3-heterocyclic substituted benzisothiazole and benzisoxazole compounds” (Wyeth, priority 2000, dated 2004)

Assays:
CYPIR (Cyperus iria) = assay: Flooded paddy, preemergence weed control; type: in vivo; details: rated 3-4 weeks after treatment, 0-9 rating scale
Method in brief: (§1)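 Seeds or propagating organs were sown in the top 0.5 cm of silt loam soil, flooded, and the water kept 1.5 to 3 cm above the soil surface throughout. Plants were grown in the greenhouse and rated visually on a 0-9 scale against a control.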

[1] = test system: GLXMAW (Soybean, Williams); assay: Preemergence herbicidal evaluation; type: in vivo, Glycine max, (L.) Merr. cv Williams; details: rated 4-5 weeks after treatment
GALAP (Galium aparine) [2] = assay: Preemergence herbicidal evaluation; type: in vivo; details: rated 4-5 weeks after treatment
Method in brief: (§2)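 Greenhouse preemergence test: freshly planted cups were sprayed once with an aqueous acetone solution of compound. Injury was judged visually on a 0–9 scale relative to a control, four to five weeks later.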

ZEAMX (Corn, Field) [3] = assay: Preemergence herbicidal evaluation; type: in vivo, Zea mays, L.; details: rated 4-5 weeks after treatment
[4] = test system: SAGPY (Sagittaria pygmaea); assay: Flooded paddy, preemergence weed control; type: in vivo, L.; details: rated 3-4 weeks after treatment, 0-9 rating scale
Method in brief: as §1

[5] = test system: IPOHE (Ipomoea hederacea); assay: Preemergence herbicidal evaluation; type: in vivo, (L.) Jacq.; details: rated 4-5 weeks after treatment
[6] = test system: IPOHE (Ipomoea hederacea); assay: Postemergence herbicidal evaluation; type: in vivo, (L.) Jacq.; details: postemergence
Method in brief: (§3)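 Seedlings grown for about two weeks were sprayed postemergence and then kept under standard greenhouse care. Injury was rated visually 4–5 weeks after treatment on a 0–9 scale against untreated controls, and ratings from repeat tests were averaged.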

[7] = test system: ECHORC (Echinochloa oryzoides); assay: Flooded paddy, preemergence weed control; type: in vivo, Echinochloa oryzoides (Ard.) Fritsch.; details: rated 3-4 weeks after treatment, 0-9 rating scale
Method in brief: as §1

[8] = test system: GLXMAW (Soybean, Williams); assay: Postemergence herbicidal evaluation; type: in vivo, Glycine max, (L.) Merr. cv Williams; details: postemergence
Method in brief: as §3

ORYSAT (Rice, Tebonnet) = assay: Preemergence herbicidal evaluation; type: in vivo, Oryza sativa, (L.) Tebonnet; details: rated 4-5 weeks after treatment
[9] = test system: CYPSE (Cyperus serotinus); assay: Flooded paddy, preemergence weed control; type: in vivo, Rottb.; details: rated 3-4 weeks after treatment, 0-9 rating scale
Method in brief: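 Seeds or propagules were planted 0.5 cm deep in silt loam and flooded to 1.5–3 cm. Compounds in 50/50 v/v aqueous/acetone were pipetted into the flood water at about 0.0080 to 0.1250 kg/ha. After 3–4 weeks in the greenhouse, effect was rated visually on a 0–9 scale versus untreated control.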

[10] = test system: ABUTH (Abutilon theophrasti); assay: Postemergence herbicidal evaluation; type: in vivo, Medic.; details: postemergence
Method in brief: as §3

GALAP (Galium aparine) [11] = assay: Postemergence herbicidal evaluation; type: in vivo; details: postemergence
Method in brief: as §3

[12] = test system: CASOB (Cassia obtusifolia); assay: Preemergence herbicidal evaluation; type: in vivo, L.; details: rated 4-5 weeks after treatment
Method in brief: as §2

[13] = test system: AMBEL (Ambrosia artemisifolia); assay: Preemergence herbicidal evaluation; type: in vivo, L.; details: rated 4-5 weeks after treatment
Method in brief: as §2

[14] = test system: CHEAL (Chenopodium album); assay: Preemergence herbicidal evaluation; type: in vivo, L.; details: rated 4-5 weeks after treatment
Method in brief: as §2

[15] = test system: CASOB (Cassia obtusifolia); assay: Postemergence herbicidal evaluation; type: in vivo, L.; details: postemergence
Method in brief: as §3

[16] = test system: AMBEL (Ambrosia artemisifolia); assay: Postemergence herbicidal evaluation; type: in vivo, L.; details: postemergence
Method in brief: as §3

[17] = test system: CHEAL (Chenopodium album); assay: Postemergence herbicidal evaluation; type: in vivo, L.; details: postemergence
Method in brief: as §3

[18] = test system: TRZAWR (Wheat, Winter, cv Riband); assay: Preemergence herbicidal evaluation; type: in vivo, Triticum aestivum; details: rated 4-5 weeks after treatment
Method in brief: as §2

ZEAMX (Corn, Field) [19] = assay: Postemergence herbicidal evaluation; type: in vivo, Zea mays, L.; details: postemergence
Method in brief: as §3

[20] = test system: ECHCG (Echinochloa crus-galli); assay: Postemergence herbicidal evaluation; type: in vivo, (L.) Beau; details: postemergence
Method in brief: as §3

Cn1c(C(F)(F)F)cc(=O)n(-c2ccc3snc(-c4nccs4)c3c2)c1=O [Compound 53, 1-methyl-3-[3-(2-thiazolyl)-1,2-benzisothiazol-5-yl]-6-(trifluoromethyl)uracil] was tested, and the “herbicidal rating, CYPIR” value (CYPIR (Cyperus iria); rate 0.0080 kg/ha) was 9.0, the “herbicidal rating, CYPIR” value (CYPIR (Cyperus iria); rate 0.0320 kg/ha) was 8.3 and the “herbicidal rating, CYPIR” value (CYPIR (Cyperus iria); rate 0.1250 kg/ha) was 9.0. For the same compound, the “Preemergence herbicidal rating GLXMAW” value ([1]; Rate 0.0620 kg/ha) was 1.0, the “Preemergence herbicidal rating GLXMAW” value ([1]; Rate 0.1250 kg/ha) was 2.5 and the “Preemergence herbicidal rating GLXMAW” value ([1]; Rate 0.2500 kg/ha) was 6.5. The “Preemergence herbicidal rating GALAP” value (GALAP (Galium aparine) [2]; Rate 0.0620 kg/ha) was 8.0, the “Preemergence herbicidal rating GALAP” value (GALAP (Galium aparine) [2]; Rate 0.1250 kg/ha) was 8.0 and the “Preemergence herbicidal rating GALAP” value (GALAP (Galium aparine) [2]; Rate 0.2500 kg/ha) was 9.0. For the same compound, the “Preemergence herbicidal rating ZEAMX” value (ZEAMX (Corn, Field) [3]; Rate 0.0620 kg/ha) was 4.0, the “Preemergence herbicidal rating ZEAMX” value (ZEAMX (Corn, Field) [3]; Rate 0.1250 kg/ha) was 5.0 and the “Preemergence herbicidal rating ZEAMX” value (ZEAMX (Corn, Field) [3]; Rate 0.2500 kg/ha) was 7.0. For the same compound, the “herbicidal rating, SAGPY” value ([4]; rate 0.0080 kg/ha) was 0.0, the “herbicidal rating, SAGPY” value ([4]; rate 0.0320 kg/ha) was 4.3 and the “herbicidal rating, SAGPY” value ([4]; rate 0.1250 kg/ha) was 9.0. For the same compound, the “Preemergence herbicidal rating IPOHE” value ([5]; Rate 0.0620 kg/ha) was 1.0, the “Preemergence herbicidal rating IPOHE” value ([5]; Rate 0.1250 kg/ha) was 3.0 and the “Preemergence herbicidal rating IPOHE” value ([5]; Rate 0.2500 kg/ha) was 8.0. The IPOHE herbicidal rating ([6]; rate 0.0320 kg/ha) was 8.0, the IPOHE herbicidal rating ([6]; rate 0.0620 kg/ha) was 9.0 and the IPOHE herbicidal rating ([6]; rate 0.1250 kg/ha) was 9.0. For the same compound, the “herbicidal rating, ECHORC” value ([7]; rate 0.0080 kg/ha) was 3.0, the “herbicidal rating, ECHORC” value ([7]; rate 0.0320 kg/ha) was 9.0 and the “herbicidal rating, ECHORC” value ([7]; rate 0.1250 kg/ha) was 9.0. For the same compound, the GLXMAW herbicidal rating ([8]; rate 0.0320 kg/ha) was 6.8, the GLXMAW herbicidal rating ([8]; rate 0.0620 kg/ha) was 8.3 and the GLXMAW herbicidal rating ([8]; rate 0.1250 kg/ha) was 8.0. The “Preemergence herbicidal rating ORYSAT” value (ORYSAT (Rice, Tebonnet); Rate 0.0620 kg/ha) was 1.0, the “Preemergence herbicidal rating ORYSAT” value (ORYSAT (Rice, Tebonnet); Rate 0.1250 kg/ha) was 3.0 and the “Preemergence herbicidal rating ORYSAT” value (ORYSAT (Rice, Tebonnet); Rate 0.2500 kg/ha) was 5.0. For the same compound, the “herbicidal rating, CYPSE” value ([9]; rate 0.0320 kg/ha) was 3.0, the “herbicidal rating, CYPSE” value ([9]; rate 0.1250 kg/ha) was 9.0 and the ABUTH herbicidal rating ([10]; rate 0.0320 kg/ha) was 9.0. It also gave an ABUTH herbicidal rating ([10]; rate 0.0620 kg/ha) of 9.0, an ABUTH herbicidal rating ([10]; rate 0.1250 kg/ha) of 9.0 and a GALAP herbicidal rating (GALAP (Galium aparine) [11]; rate 0.0320 kg/ha) of 2.5. The GALAP herbicidal rating (GALAP (Galium aparine) [11]; rate 0.0620 kg/ha) was 3.0, the GALAP herbicidal rating (GALAP (Galium aparine) [11]; rate 0.1250 kg/ha) was 7.0 and the “Preemergence herbicidal rating CASOB” value ([12]; Rate 0.0620 kg/ha) was 0.0. The “Preemergence herbicidal rating CASOB” value ([12]; Rate 0.1250 kg/ha) was 1.0, the “Preemergence herbicidal rating CASOB” value ([12]; Rate 0.2500 kg/ha) was 3.0 and the “Preemergence herbicidal rating AMBEL” value ([13]; Rate 0.0620 kg/ha) was 4.0. For the same compound, the “Preemergence herbicidal rating AMBEL” value ([13]; Rate 0.1250 kg/ha) was 8.0, the “Preemergence herbicidal rating AMBEL” value ([13]; Rate 0.2500 kg/ha) was 8.5 and the “Preemergence herbicidal rating CHEAL” value ([14]; Rate 0.0620 kg/ha) was 9.0. The “Preemergence herbicidal rating CHEAL” value ([14]; Rate 0.1250 kg/ha) was 9.0, the “Preemergence herbicidal rating CHEAL” value ([14]; Rate 0.2500 kg/ha) was 9.0 and the CASOB herbicidal rating ([15]; rate 0.0320 kg/ha) was 2.0. The CASOB herbicidal rating ([15]; rate 0.0620 kg/ha) was 4.0, the CASOB herbicidal rating ([15]; rate 0.1250 kg/ha) was 3.0 and the AMBEL herbicidal rating ([16]; rate 0.0320 kg/ha) was 6.5. The AMBEL herbicidal rating ([16]; rate 0.0620 kg/ha) was 9.0, the AMBEL herbicidal rating ([16]; rate 0.1250 kg/ha) was 9.0 and the CHEAL herbicidal rating ([17]; rate 0.0320 kg/ha) was 4.5. For the same compound, the CHEAL herbicidal rating ([17]; rate 0.0620 kg/ha) was 7.0, the CHEAL herbicidal rating ([17]; rate 0.1250 kg/ha) was 9.0 and the “Preemergence herbicidal rating TRZAWR” value ([18]; Rate 0.0620 kg/ha) was 1.0. The “Preemergence herbicidal rating TRZAWR” value ([18]; Rate 0.1250 kg/ha) was 3.5, the “Preemergence herbicidal rating TRZAWR” value ([18]; Rate 0.2500 kg/ha) was 5.0 and the ZEAMX herbicidal rating (ZEAMX (Corn, Field) [19]; rate 0.0320 kg/ha) was 4.5. The ZEAMX herbicidal rating (ZEAMX (Corn, Field) [19]; rate 0.0620 kg/ha) was 5.0, the ZEAMX herbicidal rating (ZEAMX (Corn, Field) [19]; rate 0.1250 kg/ha) was 5.5 and the ECHCG herbicidal rating ([20]; rate 0.0320 kg/ha) was 1.0. It also gave an ECHCG herbicidal rating ([20]; rate 0.0620 kg/ha) of 2.0 and an ECHCG herbicidal rating ([20]; rate 0.1250 kg/ha) of 1.0.
